Assay results: publication PMC10368966, “Safety and efficacy of AK0529 in respiratory syncytial virus‐infected infant patients: A phase 2 proof‐of‐concept trial” (Influenza and Other Respiratory Viruses, 2023)
Entries after “also recorded” stand apart in the source; their conditions may differ. Where two headings read alike, the source gives them in different places. Marks after values point to notes of the source that are not given here.

Legend:
[1] = Phase 2 study: population pharmacokinetics of plasma concentrations; assay type: in vivo, human (infants); conditions: for Tmax / AUC(0-t) / Cmax / AUC(0-inf) / half-life: human, plasma; for Cmax: read-out: Cmax mean (CV %); for AUC(0-inf): read-out: AUC0–∞ mean (CV %); for half-life: read-out: t½ mean (CV %) (converted)
Experimental: Individual plasma concentrations of the active drug were measured, and PK were determined using nonlinear mixed‐effect models. In all cases, when new data were available, the updated model was used for evaluation under the assumption of an allometric coefficient of 0.75 and incorporation of CYP maturation. Using a Population PK (Pop‐PK) analysis approach, AUC0–∞, clearance (CL/F), volume of distribution (Vc/F), and other PK parameters were estimated for AK0529. Maximum plasma concentration (Cmax) was computed from the predicted profiles.
(§1) Clinical safety and tolerability were assessed on the safety population, comprising all subjects who received ≥1 dose of study drug. Clinical variables were evaluated in the full analysis population, which included all subjects who received a dose of study drug and for whom ≥1 post‐treatment assessment was available. Pharmacokinetic analysis was performed on those subjects in the safety population for whom both pre‐ and post‐dose samples were available.

[2] = Phase 2 study: safety and tolerability (adverse events); assay type: in vivo, human (infants)
Experimental: (§2) Safety and tolerability was evaluated by clinical assessment of safety data, including laboratory data, electrocardiographic data, vital signs, and adverse events (AEs).
as §1

[3] = Phase 2 study: AST and ALT shift evaluation; assay type: in vivo, human (infants)
Experimental: as §2
In study Part 1, no formal sample size calculation was performed. For Part 2, it was calculated that a sample size of 16 patients in each active treatment group would provide >90% power to detect a 50% reduction (mean ratio of 0.5) in RSV viral load AUC with AK0529 as compared with placebo, using a one‐sided significance level of 0.05, two‐sample equal variance t‐test, and assuming a 0.3 variation coefficient of the placebo for viral load. These assumptions were based on viral challenge models of early treatment in adults.[3] For the transaminase shift analysis, the Chi‐square test and Fisher's exact test were used, as appropriate, to test for differences between active treatment and placebo.

[4] = set-up: method as in Supporting Information; conditions: multiple doses up to 300 mg bid ref Supporting Information; cited from earlier work
[5] = Part 1, single oral dose 0.5 mg/kg
[6] = Part 1, single oral dose 1.0 mg/kg
[7] = Part 1, single oral dose 2.0 mg/kg
[8] = Part 1, single oral dose 4.0 mg/kg
[9] = TEAE, preferred term, AK0529 N=49
[10] = TEAE, system organ class, AK0529 N=49
[11] = AK0529 n = 38, worst shift category
[12] = AK0529 n = 39, worst shift category

## Cc1ccc2nc(N3CCS(=O)(=O)c4ccccc4C3)nc(NCC3(N)COC3)c2c1 [AK0529, ziresovir]
[1]; Part 1, compared with older subjects
  elimination half-life in subjects aged <6 months: slightly longer
[1]; Part 1, single doses except 4 mg/kg
  time to reach Cmax: around 4 h
[1]; Part 1, single doses up to 4 mg/kg, no apparent plateau
  change in AUC with dose: dose‐dependent increase
[1]; Part 2, 2 mg/kg bid
  targeted drug exposure: reached
[1]; Part 2, across the dose range tested
  dose proportionality of mean Cmax and AUCτ: approximate dose proportionality
[1]; Part 2, bid dosing
  increase in AUCτ from Days 1 to 5 (accumulation): approximately 1.5 fold
  median trough: 12 h
[1]; oral, Part 2, Days 1 and 5, read-out: median tmax
  Tmax: 2.5 to 3.8 h
[1]; oral, Part 1, single doses up to 4 mg/kg, read-out: AUC0–24
  AUC(0-t): ≤ 7780 ng·h/mL
[1]; po, 0.5 mg/kg, Part 1, single oral dose 0.5 mg/kg, read-out: tmax median (range)
  Tmax: 4.5 h
[1]; po, 1 mg/kg, Part 1, single oral dose 1.0 mg/kg, read-out: tmax median (range)
  Tmax: 4.3 h
[1]; po, 2 mg/kg, Part 1, single oral dose 2.0 mg/kg, read-out: tmax median (range)
  Tmax: 3.3 h
[1]; po, 4 mg/kg, Part 1, single oral dose 4.0 mg/kg, read-out: tmax median (range)
  Tmax: ~2 h
[1]; Part 1, single oral dose 0.5 mg/kg, N 4, all younger than 6 months
  Cmax: 158 ng/mL
[1]; Part 1, single oral dose 0.5 mg/kg, read-out: AUC0–24 mean (CV %)
  AUC(0-t): 1770 ng·h/mL
[1]; [5]
  AUC(0-inf): 2060 ng·h/mL
  half-life: 7.7 h
[1]; Part 1, single oral dose 1.0 mg/kg, N 6
  Cmax: 302 ng/mL
[1]; Part 1, single oral dose 1.0 mg/kg, read-out: AUC0–24 mean (CV %)
  AUC(0-t): 2890 ng·h/mL
[1]; [6]
  AUC(0-inf): 3150 ng·h/mL
  half-life: 5.7 h
[1]; Part 1, single oral dose 2.0 mg/kg, N 4
  Cmax: 375 ng/mL
[1]; Part 1, single oral dose 2.0 mg/kg, read-out: AUC0–24 mean (CV %)
  AUC(0-t): 3790 ng·h/mL
[1]; [7]
  AUC(0-inf): 4200 ng·h/mL
  half-life: 6.2 h
[1]; Part 1, single oral dose 4.0 mg/kg, N 3 incl. one subject of Study AK0529-1002
  Cmax: 888 ng/mL
[1]; Part 1, single oral dose 4.0 mg/kg, read-out: AUC0–24 mean (CV %)
  AUC(0-t): 7780 ng·h/mL
[1]; [8]
  AUC(0-inf): 8280 ng·h/mL
  half-life: 6 h
[2]; AK0529 all doses N = 49
  Subjects with any AEs: 25 (51.0%) n (%)
  Subjects with any TEAEs: 24 (49.0%) n (%)
  Subjects with any TEAEs induced withdrawal: 0 n (%)
  Subjects with any TEAEs leading to death: 0 n (%)
  Subjects with any drug related TEAEs: 3 (6.1%) ^a n (%)
  Subjects with any grade ≥3 TEAEs: 2 (4.1%) ^c n (%)
[2]; AK0529 all doses N = 49, two cases of unrelated pneumonia
  Subjects with any serious TEAEs: 2 (4.1%) ^b n (%)
[2]; AK0529 group 24/49
  patients reporting grade ≥1 TEAEs: 49.0%
[2]; AK0529 group, three subjects
  subjects with Grade 1 TEAE considered drug-related by the investigator: 6%
[2]; AK0529 group, two of 49, none related to drug treatment
  patients experiencing a serious TEAE: 4.1%
[2]; AK0529 groups
  withdrawals or deaths because of TEAEs: No withdrawals or deaths; also recorded: none led to death or withdrawal from the study
[2]; AK0529 groups 2/49
  patients with grade ≥3 treatment-emergent adverse events: 4.1%
[2]; [9]
  Acute tonsillitis: 1 (2.0%) n (%)
  Anemia: 1 (2.0%) n (%)
  Aspartate aminotransferase increased: 3 (6.1%) n (%)
  Candida infection: 1 (2.0%) n (%)
  Conjunctivitis: 1 (2.0%) n (%)
  Constipation: 0 n (%)
  Dermatitis: 1 (2.0%) n (%)
  Dermatitis diaper: 4 (8.2%) n (%)
  Diarrhea: 2 (4.1%) n (%)
  Epistaxis: 2 (4.1%) n (%)
  Erythema of eyelid: 1 (2.0%) n (%)
  Eye pruritus: 0 n (%)
  Flatulence: 1 (2.0%) n (%)
  Gastrointestinal inflammation: 1 (2.0%) n (%)
  Hematochezia: 0 n (%)
  Hepatitis: 2 (4.1%) n (%)
  Hyperkalemia: 2 (4.1%) n (%)
  Hyperphosphatemia: 1 (2.0%) n (%)
  Impaired gastric emptying: 0 n (%)
  Injection site extravasation: 1 (2.0%) n (%)
  Leukocytosis: 1 (2.0%) n (%)
  Metabolic acidosis: 1 (2.0%) n (%)
  Nasopharyngitis: 1 (2.0%) n (%)
  Oral candidiasis: 1 (2.0%) n (%)
  Otitis media acute: 2 (4.1%) n (%)
  Pneumonia: 3 (6.1%) n (%)
  Pyrexia: 1 (2.0%) n (%)
  Rash: 1 (2.0%) n (%)
  Rotavirus test positive: 0 n (%)
  Thrombocytosis: 1 (2.0%) n (%)
  Transaminases increased: 2 (4.1%) n (%)
  Upper respiratory tract infection: 1 (2.0%) n (%)
  Urine ketone body present: 1 (2.0%) n (%)
  Vomiting: 1 (2.0%) n (%)
[2]; [10]
  Blood and lymphatic system disorders: 3 (6.1%) n (%)
  Eye disorders: 1 (2.0%) n (%)
  Gastrointestinal disorders: 5 (10.2%) n (%)
  General disorders and administration site conditions: 1 (2.0%) n (%)
  Hepatobiliary disorders: 2 (4.1%) n (%)
  Infections and infestations: 5 (10.2%) n (%)
  Injury, poisoning and procedural complications: 1 (2.0%) n (%)
  Investigations: 6 (12.2%) n (%)
  Metabolism and nutrition disorders: 4 (8.2%) n (%)
  Respiratory, thoracic and mediastinal disorders: 6 (12.2%) n (%)
  Skin and subcutaneous tissue disorders: 6 (12.2%) n (%)
[2]; hospitalized RSV-infected infant patients
  overall tolerability: well tolerated
[2]; human, in vivo
  Bacterial infection: 0 n (%)
[3]; AK0529 n = 38
  ALT shift: Abnormal CS to abnormal NCS: 0 n (%)
  ALT shift: Abnormal CS to normal: 0 n (%)
  ALT shift: Abnormal NCS to normal: 1 (2.6%) n (%)
  ALT shift: No change: 34 (89.5%) n (%)
[3]; [11]
  ALT shift: Abnormal NCS to abnormal CS: 1 (2.6%) n (%)
  ALT shift: Normal to abnormal CS: 1 (2.6%) n (%)
  ALT shift: Normal to abnormal NCS: 1 (2.6%) n (%)
[3]; AK0529 n = 39
  AST shift: Abnormal CS to abnormal NCS: 1 (2.6%) n (%)
  AST shift: Abnormal CS to normal: 1 (2.6%) n (%)
  AST shift: Abnormal NCS to normal: 2 (5.1%) n (%)
  AST shift: No change: 29 (74.4%) n (%)
[3]; [12]
  AST shift: Abnormal NCS to abnormal CS: 0 n (%)
  AST shift: Normal to abnormal CS: 2 (5.1%) n (%)
  AST shift: Normal to abnormal NCS: 4 (10.3%) n (%)
[3]; vs placebo, Fisher's exact p = 0.516 (ALT), p = 0.644 (AST)
  association between exposure to active drug and deterioration / shifts in transaminase levels (ALT, AST): No statistically significant differences; also recorded: no association was found
[4]
  tolerability: good tolerability
